Here are results for 23 compounds from US12297285B2 (Orna Therapeutics, Inc., priority 2022, dated 2025).

What all share (test): IRES screening, Gaussia luciferase from LNP-oRNA (Table 27)
Common to all, as to conditions: Gaussia luciferase luminescence in supernatant 48 hours after LNP-oRNA transfection, normalized to control (caprine kobuvirus IRES)

For assay [1], the system named is primary human hepatocytes.
For assay [2], the system named is primary human skeletal myotubes.
In assay [3] the test system is activated primary human T cells.

In the case of `Cc1nccn1CCCN(CCCCCCCCC(=O)OCCC(C)CC(C)(C)C)CCCCCCCCC(=O)OCCC(C)CC(C)(C)C` (stereo not drawn) [Lipid 10a-106], the “[Mod] PHH Fold Change” value in assay [1] is recorded as 1.093 Fold Change. Also, in assay [2], the “[Mod] Fold Change Myo” value was 0.3524 Fold Change. Moreover, the “[Mod] T Fold Change” value in assay [3] was found to be 0.648 Fold Change.
On the same counts, the results for `CCCCC/C=C\C/C=C\CCCCCCCC(=O)OCC(COC(=O)CCC(OCCCCCCCC)OCCCCCCCC)COC(=O)OCCCn1ccnc1C` (stereo not drawn) [Lipid 10a-141] are 0.547 Fold Change, 0.04025 Fold Change and 0.03106 Fold Change.
With `CCCCCCCCCCCCC(O)CN(CCCCCCCC(=O)OC(CCCCCCCC)CCCCCCCC)CCCn1ccnc1C` (stereo not drawn) [Lipid 10a-150], the “[Mod] PHH Fold Change” value in assay [1] came out at 0.5147 Fold Change. Also, the “[Mod] Fold Change Myo” value in assay [2] amounted to 0.03864 Fold Change. The “[Mod] T Fold Change” value in assay [3] is on record as 0.02705 Fold Change.
On the same counts, the results for `CCCCCCCCCOC(=O)CCCCCCCN(CCCCCCCC(=O)OC(CCCCCCCC)CCCCCCCC)CCn1ccnc1` [Lipid 10a-132] are 0.5643 Fold Change, 0.03998 Fold Change and 0.03118 Fold Change.
For the compound `CCCCC(C)CCC(=O)OCCCCCCN(CCCCCCOC(=O)CCC(C)CCCC)CCCn1ccnc1C` (stereo not drawn) [Lipid 10a-114], the “[Mod] PHH Fold Change” value in assay [1] came to 0.7898 Fold Change. Also, the “[Mod] Fold Change Myo” value in assay [2] stood at 0.05835 Fold Change. Besides, the “[Mod] T Fold Change” value in assay [3] worked out at 0.06812 Fold Change.
On the same counts, the results for `CCCCCCCCCN(CCn1ccnc1)C(CCCCCCCCC(=O)OCC(CCCC)CCCCCC)CCCCCCCCC(=O)OCC(CCCC)CCCCCC` (stereo not drawn) [Lipid 10a-146] are 0.5873 Fold Change, 0.04323 Fold Change and 0.03465 Fold Change.
The corresponding values for `CC(C)CCC(C)CCOC(=O)CCCCCCCC(CCCCCCCC(=O)OCCC(C)CCC(C)C)OC(=O)CCCn1ccnc1` (stereo not drawn) [Lipid 10a-101] are 1.37 Fold Change, 0.533 Fold Change and 0.853 Fold Change.
As to `CCCCCCCCCOC(=O)CCCCCCCN(CCCCCCCC(=O)OC(CCCCCCCC)CCCCCCCC)CCC(C)n1ccnc1` (stereo not drawn) [Lipid 10a-131], the “[Mod] PHH Fold Change” value in assay [1] is 0.5348 Fold Change. Moreover, the “[Mod] Fold Change Myo” value in assay [2] amounted to 0.03951 Fold Change. For the same compound, in assay [3], the “[Mod] T Fold Change” value stood at 0.03336 Fold Change.
The corresponding values for `Cc1nccn1CCCN(CCCCCCCC(=O)OCC(CCC(C)C)C(C)C)CCCCCCCC(=O)OCC(CCC(C)C)C(C)C` (stereo not drawn) [Lipid 10a-99] are 1.02 Fold Change, 0.1639 Fold Change and 0.2767 Fold Change.
The corresponding values for `CCCCCCCCCCCCCCN(CCC(C)n1ccnc1)C(CCCCCCCCC(=O)OCC(CCCC)CCCCCC)CCCCCCCCC(=O)OCC(CCCC)CCCCCC` (stereo not drawn) [Lipid 10a-134] are 0.4673 Fold Change, 0.04662 Fold Change and 0.05294 Fold Change.
Consider `Cc1nccn1CCCC(=O)OC(CCCCCCCCC(=O)OCCC(C)CC(C)(C)C)CCCCCCCCC(=O)OCCC(C)CC(C)(C)C` (stereo not drawn) [Lipid 10a-107], for which the “[Mod] PHH Fold Change” value in assay [1] was determined as 1.119 Fold Change. Besides, the “[Mod] Fold Change Myo” value in assay [2] is recorded as 0.2879 Fold Change. The “[Mod] T Fold Change” value in assay [3] is given as 0.9371 Fold Change.
On the same counts, the results for `CC(C)=CCC/C(C)=C/C(=O)OCCCCCCC(CCCCCCOC(=O)/C=C(\C)CCC=C(C)C)OC(=O)CCCn1ccnc1` (stereo not drawn) [Lipid 10a-120] are 0.4893 Fold Change, 0.2755 Fold Change and 0.7019 Fold Change.
The corresponding values for `CC(C)CCCC(C)CC(=O)OCCCCCCN(CCCCCCOC(=O)CC(C)CCCC(C)C)CCCn1ccnc1` (stereo not drawn) [Lipid 10a-122] are 0.8322 Fold Change, 0.3886 Fold Change and 0.8876 Fold Change.
The corresponding values for `Cc1nccn1CCCC(=O)OC(CCCCCCCC(=O)OCC(CCC(C)C)C(C)C)CCCCCCCC(=O)OCC(CCC(C)C)C(C)C` (stereo not drawn) [Lipid 10a-98] are 0.788 Fold Change, 0.2906 Fold Change and 0.677 Fold Change.
Regarding `CCCCCCCCCN(CCCn1ccnc1)C(CCCCCCCCC(=O)OCC(CCCC)CCCCCC)CCCCCCCCC(=O)OCC(CCCC)CCCCCC` (stereo not drawn) [Lipid 10a-142], the “[Mod] PHH Fold Change” value in assay [1] was 0.468 Fold Change. In assay [2], the “[Mod] Fold Change Myo” value amounted to 0.03852 Fold Change. The “[Mod] T Fold Change” value in assay [3] is on record as 0.02743 Fold Change.
The corresponding values for `CC(C)CCC(C)CCOC(=O)CCCCCCCN(CCCCCCCC(=O)OCCC(C)CCC(C)C)CCCn1ccnc1` (stereo not drawn) [Lipid 10a-100] are 1.228 Fold Change, 0.4952 Fold Change and 0.4826 Fold Change.
Turning to `Cc1nccn1CCCN(CCCCCCOC(=O)CC(C)CCCC(C)C)CCCCCCOC(=O)CC(C)CCCC(C)C` (stereo not drawn) [Lipid 10a-123], the “[Mod] PHH Fold Change” value in assay [1] stood at 0.638 Fold Change. The “[Mod] Fold Change Myo” value in assay [2] is 0.03971 Fold Change. The “[Mod] T Fold Change” value in assay [3] was determined as 0.03011 Fold Change.
In the case of `CC(CCOC(=O)CCCCCCCCN(CCCCCCCCC(=O)OCCC(C)CC(C)(C)C)CCCn1ccnc1)CC(C)(C)C` (stereo not drawn) [Lipid 10a-104], the “[Mod] PHH Fold Change” value in assay [1] was 0.7745 Fold Change. Also, the “[Mod] Fold Change Myo” value in assay [2] was determined as 0.07607 Fold Change. Also, the “[Mod] T Fold Change” value in assay [3] is listed as 0.1688 Fold Change.
On the same counts, the results for `CCCCCCCCC(CCCCCC)OCCOC(=O)CCN(CCCn1ccnc1C)CCC(=O)OCCOC(CCCCCC)CCCCCCCC` (stereo not drawn) [Lipid 10a-143] are 0.4209 Fold Change, 0.03901 Fold Change and 0.03265 Fold Change.
With `CCCCCCCCC(CCCCCC)C(=O)OCCCCCCN(CCCCCCOC(=O)C(CCCCCC)CCCCCCCC)CCn1ccnc1` (stereo not drawn) [Lipid 10a-129], the “[Mod] PHH Fold Change” value in assay [1] is listed as 0.6689 Fold Change. Moreover, the “[Mod] Fold Change Myo” value in assay [2] was determined as 0.05369 Fold Change. Besides, the “[Mod] T Fold Change” value in assay [3] was 0.08945 Fold Change.
On the same counts, the results for `CC(C)=CCCC(C)CC(=O)OCCCCCCC(CCCCCCOC(=O)CC(C)CCC=C(C)C)OC(=O)CCCn1ccnc1C` (stereo not drawn) [Lipid 10a-119] are 0.6212 Fold Change, 0.198 Fold Change and 0.9876 Fold Change.
On the same counts, the results for `CC(C)=CCC/C(C)=C/C(=O)OCCCCCCN(CCCCCCOC(=O)/C=C(\C)CCC=C(C)C)CCCn1ccnc1C` [Lipid 10a-127] are 0.6745 Fold Change, 0.2936 Fold Change and 0.6858 Fold Change.
Consider `CCCCCCCCC(CCCCCC)C(=O)OCCCCCCN(CCCCCCOC(=O)C(CCCCCC)CCCCCCCC)CCn1ccnc1C` (stereo not drawn) [Lipid 10a-139], for which the “[Mod] PHH Fold Change” value in assay [1] worked out at 0.5206 Fold Change. The “[Mod] Fold Change Myo” value in assay [2] is listed as 0.0597 Fold Change. The “[Mod] T Fold Change” value in assay [3] turned out to be 0.09732 Fold Change.
